The CheMixHub drug solubility set

Assay: xn = mol fraction of the nth substance listed, in the solute-free solvent

NC(N)=C([N+](=O)[O-])[N+](=O)[O-] + CS(C)=O + O=C1CCCC1
solubility (g/100 g solution)
Conditions | 293.15 K | 298.15 K | 303.15 K | 308.15 K | 313.15 K | 318.15 K | 323.15 K | 328.15 K | 333.15 K
x2 = 0.1177 | 3.67 | 3.8 | 4.06 | 4.31 | 4.57 | 4.86 | 5.16 | 5.5 | 5.84
x2 = 0.2308 | 7.45 | 7.83 | 8.19 | 8.56 | 8.97 | 9.37 | 9.83 | 10.2 | 10.7
x2 = 0.3397 | 11.5 | 12.1 | 12.6 | 13 | 13.5 | 14 | 14.5 | 15 | 15.6
x2 = 0.4445 | 15.2 | 15.8 | 16.2 | 16.6 | 17.1 | 17.6 | 18.3 | 18.9 | 19.5
x2 = 0.5455 | 18.5 | 19.2 | 19.7 | 20.1 | 20.6 | 21.1 | 21.7 | 22.3 | 22.9
x2 = 0.6429 | 21.3 | 21.9 | 22.4 | 22.9 | 23.4 | 24 | 24.6 | 25.1 | 25.8
x2 = 0.7369 | 23.8 | 24.6 | 25 | 25.5 | 26.1 | 26.6 | 27.2 | 27.8 | 28.5
x2 = 0.8276 | 26 | 26.5 | 27 | 27.4 | 28.1 | 28.6 | 29.2 | 29.8 | 30.4
x2 = 0.9153 | 27.7 | 28.5 | 29 | 29.4 | 30 | 30.5 | 31.1 | 31.8 | 32.4

Nc1cc(-c2ccncc2)c[nH]c1=O + CO + O
solubility (g/100 g solution)
Conditions | 278.15 K | 283.15 K | 288.15 K | 293.15 K | 298.15 K | 303.15 K | 308.15 K | 313.15 K | 318.15 K | 323.15 K
x2 = 0.05881 | 0.00167 | 0.00195 | 0.00231 | 0.00269 | 0.00313 | 0.00358 | 0.00409 | 0.00463 | 0.00525 | 0.00594
x2 = 0.1233 | 0.00324 | 0.00377 | 0.00445 | 0.00515 | 0.00595 | 0.00677 | 0.00768 | 0.00865 | 0.00977 | 0.011
x2 = 0.1942 | 0.00545 | 0.00626 | 0.00731 | 0.00841 | 0.00969 | 0.011 | 0.0124 | 0.0141 | 0.0159 | 0.0179
x2 = 0.2727 | 0.00818 | 0.00949 | 0.0111 | 0.0129 | 0.0147 | 0.0167 | 0.0189 | 0.0211 | 0.0237 | 0.0266
x2 = 0.3599 | 0.0113 | 0.013 | 0.0152 | 0.0174 | 0.0201 | 0.0228 | 0.0258 | 0.029 | 0.0326 | 0.0367
x2 = 0.4576 | 0.0147 | 0.0171 | 0.0201 | 0.0232 | 0.0266 | 0.0302 | 0.034 | 0.0381 | 0.0428 | 0.048
x2 = 0.5675 | 0.0183 | 0.0214 | 0.0246 | 0.029 | 0.0331 | 0.0375 | 0.0424 | 0.0475 | 0.0536 | 0.0605
x2 = 0.6923 | 0.0222 | 0.026 | 0.0305 | 0.0355 | 0.0408 | 0.0463 | 0.0524 | 0.0586 | 0.0662 | 0.0743
x2 = 0.835 | 0.0262 | 0.0305 | 0.0355 | 0.0412 | 0.0475 | 0.0545 | 0.0616 | 0.0694 | 0.0789 | 0.0893

O=C1C=CC(=O)N1c1ccccc1Br + CC(C)O + O
solubility (g/100 g solution)
Conditions | 278.15 K | 283.15 K | 288.15 K | 293.15 K | 298.15 K | 303.15 K | 308.15 K | 313.15 K | 318.15 K | 323.15 K
x2 = 0.03225 | 0.488 | 0.623 | 0.779 | 0.978 | 1.23 | 1.51 | 1.84 | 2.23 | 2.7 | 3.25
x2 = 0.06974 | 0.861 | 1.08 | 1.35 | 1.69 | 2.09 | 2.55 | 3.1 | 3.77 | 4.48 | 5.34
x2 = 0.1139 | 1.4 | 1.76 | 2.18 | 2.7 | 3.31 | 3.97 | 4.86 | 5.84 | 6.97 | 8.22
x2 = 0.1666 | 2.08 | 2.57 | 3.18 | 3.87 | 4.71 | 5.69 | 6.76 | 8.01 | 9.42 | 11
x2 = 0.2307 | 2.9 | 3.57 | 4.27 | 5.21 | 6.18 | 7.35 | 8.51 | 10.1 | 11.6 | 13.5
x2 = 0.3103 | 3.46 | 4.18 | 5.06 | 6.06 | 7.2 | 8.48 | 9.92 | 11.5 | 13.2 | 15.1
x2 = 0.4117 | 3.79 | 4.6 | 5.54 | 6.58 | 7.75 | 9.12 | 10.5 | 12.3 | 14.1 | 16.1
x2 = 0.5454 | 3.85 | 4.69 | 5.65 | 6.75 | 7.99 | 9.39 | 10.8 | 12.7 | 14.6 | 16.7
x2 = 0.7297 | 3.73 | 4.58 | 5.43 | 6.58 | 7.83 | 9.28 | 10.8 | 12.5 | 14.4 | 16.6

Nc1ncn(C2OC(CO)C(O)C2O)c(=O)n1 (configuration not stated) + O + CC(C)O
solubility (g/100 g solution)
Conditions | 278.15 K | 283.15 K | 288.15 K | 293.15 K | 298.15 K | 303.15 K | 308.15 K | 313.15 K | 318.15 K
x2 = 0.4546 | 0.0657 | 0.0837 | 0.104 | 0.126 | 0.152 | 0.187 | 0.227 | 0.276 | 0.336
x2 = 0.6897 | 0.152 | 0.192 | 0.238 | 0.293 | 0.351 | 0.421 | 0.502 | 0.601 | 0.714
x2 = 0.8334 | 0.275 | 0.349 | 0.429 | 0.516 | 0.613 | 0.717 | 0.851 | 0.997 | 1.17
x2 = 0.9303 | 0.455 | 0.57 | 0.693 | 0.836 | 0.979 | 1.14 | 1.31 | 1.52 | 1.75
